This data set deals with CCRIS mutagenicity, Ames/micronucleus/aberration tests. The experiment in a line: CCRIS mutagenicity studies.

Consider five molecules from PubChem BioAssay AID1259407 (Chemical Carcinogenesis Research Information System (CCRIS), 2018).

The source made the active and inactive calls. The rule behind the calls is not given here.

Take `O=[N+]([O-])NC1=NCCN1Cc1ccc(Cl)nc1`: the mutagenic call by setting is: (End Point: In vitro micronucleus, Test System: Human lymphocytes, Metabolic Activation: None) “inactive; negative”; (End Point: In vitro micronucleus, Test System: Human peripheral blood lymphocytes, Metabolic Activation: None) “inactive; negative”; (End Point: In vitro micronucleus, Test System: Human peripheral blood lymphocytes, Metabolic Activation: Rat, Liver, S-9 (10%)) “active; positive (at highest dose only)”; (End Point: In vivo chromosomal aberrations, Test System: Bone marrow polychromatic erythrocytes, Species: Rat, Strain/Sex: Wistar, Route: Oral) “active; positive (structural changes)”; (End Point: In vivo micronucleus, Test System: Bone marrow polychromatic erythrocytes, Species: Rat, Strain/Sex: Wistar/Male, Route: Oral) “active; positive (at high dose)”; (End Point: In vivo micronucleus, Test System: Bone marrow polychromatic erythrocytes, Species: Rat, Strain/Sex: Wistar, Route: Oral) “active; positive”. The mutagenic call by setting is: (Test System: Ames Salmonella typhimurium, Strain/Indicator: TA98, Metabolic Activation: None, Method: Preincubation) “active; positive”; (Test System: Ames Salmonella typhimurium, Strain/Indicator: TA98, Metabolic Activation: Rat, Liver, S-9 (10%), Aroclor 1254, Method: Preincubation) “active; positive”; (Test System: Ames Salmonella typhimurium, Strain/Indicator: TA100, Metabolic Activation: None, Method: Preincubation) “inactive; negative”; (Test System: Ames Salmonella typhimurium, Strain/Indicator: TA100, Metabolic Activation: Rat, Liver, S-9 (10%), Aroclor 1254, Method: Preincubation) “inactive; negative”.
For `O=[N+]([O-])c1ccccc1Nc1ccccc1`, the mutagenic call is “inactive; negative” (Test System: AMES SALMONELLA TYPHIMURIUM, Strain/Indicator: TA97, Metabolic Activation: HAMSTER, LIVER, S-9, AROCLOR 1254 (5, 10 OR 30%), Method: PREINCUBATION); “inactive; negative” (Test System: AMES SALMONELLA TYPHIMURIUM, Strain/Indicator: TA97, Metabolic Activation: NONE, Method: PREINCUBATION); “inactive; negative” (Test System: AMES SALMONELLA TYPHIMURIUM, Strain/Indicator: TA97, Metabolic Activation: RAT, LIVER, S-9, AROCLOR 1254 (10%), Method: PREINCUBATION); “inactive; negative” (Test System: AMES SALMONELLA TYPHIMURIUM, Strain/Indicator: TA97, Metabolic Activation: RAT, LIVER, S-9, AROCLOR 1254 (30%), Method: PREINCUBATION); “inactive; negative” (Test System: AMES SALMONELLA TYPHIMURIUM, Strain/Indicator: TA98, Metabolic Activation: HAMSTER, LIVER, S-9, AROCLOR 1254 (10%), Method: PREINCUBATION); “inactive; negative” (Test System: AMES SALMONELLA TYPHIMURIUM, Strain/Indicator: TA98, Metabolic Activation: HAMSTER, LIVER, S-9, AROCLOR 1254 (30%), Method: PREINCUBATION). Further, the mutagenic call is “inactive; negative” (Test System: AMES SALMONELLA TYPHIMURIUM, Strain/Indicator: TA98, Metabolic Activation: NONE, Method: PREINCUBATION); “inactive; negative” (Test System: AMES SALMONELLA TYPHIMURIUM, Strain/Indicator: TA98, Metabolic Activation: RAT, LIVER, S-9, AROCLOR 1254 (10%), Method: PREINCUBATION); “inactive; negative” (Test System: AMES SALMONELLA TYPHIMURIUM, Strain/Indicator: TA98, Metabolic Activation: RAT, LIVER, S-9, AROCLOR 1254 (30%), Method: PREINCUBATION); “inactive; negative” (Test System: AMES SALMONELLA TYPHIMURIUM, Strain/Indicator: TA100, Metabolic Activation: HAMSTER, LIVER, S-9, AROCLOR 1254 (10%), Method: PREINCUBATION); “inactive; negative” (Test System: AMES SALMONELLA TYPHIMURIUM, Strain/Indicator: TA100, Metabolic Activation: HAMSTER, LIVER, S-9, AROCLOR 1254 (30%), Method: PREINCUBATION); “inactive; negative” (Test System: AMES SALMONELLA TYPHIMURIUM, Strain/Indicator: TA100, Metabolic Activation: NONE, Method: PREINCUBATION). The mutagenic call (Test System: AMES SALMONELLA TYPHIMURIUM, Strain/Indicator: TA100, Metabolic Activation: RAT, LIVER, S-9, AROCLOR 1254 (10%), Method: PREINCUBATION) was “inactive; negative”; the mutagenic call (Test System: AMES SALMONELLA TYPHIMURIUM, Strain/Indicator: TA100, Metabolic Activation: RAT, LIVER, S-9, AROCLOR 1254 (30%), Method: PREINCUBATION) is “inactive; negative”; the mutagenic call (Test System: AMES SALMONELLA TYPHIMURIUM, Strain/Indicator: TA1535, Metabolic Activation: HAMSTER, LIVER, S-9, AROCLOR 1254 (10%), Method: PREINCUBATION) was “inactive; negative”; the mutagenic call (Test System: AMES SALMONELLA TYPHIMURIUM, Strain/Indicator: TA1535, Metabolic Activation: HAMSTER, LIVER, S-9, AROCLOR 1254 (30%), Method: PREINCUBATION) is “inactive; negative”; the mutagenic call (Test System: AMES SALMONELLA TYPHIMURIUM, Strain/Indicator: TA1535, Metabolic Activation: NONE, Method: PREINCUBATION) is “inactive; negative”; the mutagenic call (Test System: AMES SALMONELLA TYPHIMURIUM, Strain/Indicator: TA1535, Metabolic Activation: RAT, LIVER, S-9, AROCLOR 1254 (10%), Method: PREINCUBATION) was “inactive; negative”. Besides, the mutagenic call (Test System: AMES SALMONELLA TYPHIMURIUM, Strain/Indicator: TA1535, Metabolic Activation: RAT, LIVER, S-9, AROCLOR 1254 (30%), Method: PREINCUBATION) is “inactive; negative”.
As to `CS(=O)(=O)Nc1ccc(Nc2c3ccccc3nc3cc(N=[N+]=[N-])ccc23)cc1`, the mutagenic call (Test System: AMES SALMONELLA TYPHIMURIUM, Strain/Indicator: TA1537, Metabolic Activation: NONE, Method: STANDARD PLATE) was “active; positive”.
As for `CCc1ccc2c3c(cccc13)-c1ccccc1-2`, the mutagenic call by setting is: (Test System: AMES SALMONELLA TYPHIMURIUM, Strain/Indicator: TA98, Metabolic Activation: NONE, Method: STANDARD PLATE) “inactive; negative”; (Test System: AMES SALMONELLA TYPHIMURIUM, Strain/Indicator: TA98, Metabolic Activation: RAT, LIVER, S-9, AROCLOR 1254 (4%), Method: STANDARD PLATE) “inactive; negative”.
For the molecule `O=[N+]([O-])C(Cl)(Cl)Br`, the mutagenic call (Test System: Ames Salmonella typhimurium, Strain/Indicator: RSJ100, Metabolic Activation: None, Method: Standard plate) is “inactive; negative”; the mutagenic call (Test System: Ames Salmonella typhimurium, Strain/Indicator: RSJ100, Metabolic Activation: Rat, Liver, S-9, Aroclor, Method: Standard plate) was “active; positive”; the mutagenic call (Test System: Ames Salmonella typhimurium, Strain/Indicator: TA98, Metabolic Activation: None, Method: Standard plate) is “inactive; negative”; the mutagenic call (Test System: Ames Salmonella typhimurium, Strain/Indicator: TA98, Metabolic Activation: Rat, Liver, S-9, Aroclor, Method: Standard plate) is “inactive; negative”; the mutagenic call (Test System: Ames Salmonella typhimurium, Strain/Indicator: TA100, Metabolic Activation: None, Method: Standard plate) is “inactive; negative”; the mutagenic call (Test System: Ames Salmonella typhimurium, Strain/Indicator: TA100, Metabolic Activation: Rat, Liver, S-9, Aroclor, Method: Standard plate) is “inactive; negative”. The mutagenic call was “active; positive” (Test System: Ames Salmonella typhimurium, Strain/Indicator: TA104, Metabolic Activation: None, Method: Standard plate); “active; positive” (Test System: Ames Salmonella typhimurium, Strain/Indicator: TA104, Metabolic Activation: Rat, Liver, S-9, Aroclor, Method: Standard plate); “inactive; negative” (Test System: Ames Salmonella typhimurium, Strain/Indicator: TPT100, Metabolic Activation: None, Method: Standard plate).
